Tests used:
Assay type in all cases: cell-based, mice
[1] = test system: C2C12 cells; assay: TNF-α induced muscle cell injury model, intracellular ROS; conditions: 4 days in differentiation medium, relative to 0 ng/mL
Method: Firstly, C2C12 cells (i.e., myoblasts of mice, purchased from ATCC) were cultured in H-DMEM medium (purchased from Sigma company) until 80% confluence was attained (i.e., the mixed cell monolayer comprised 80% of the area). Thereafter, the cells were separated into four groups, and the mediums of all the groups were replaced by differentiation mediums supplemented with 2% horse serum. TNF-α (purchased from Sigma company) was then added into those mediums to provide final concentrations of 0, 2, 5 or 10 ng/mL respectively. After being co-treated with the differentiation medium and TNF-α for 4 days, the intracellular reactive oxidative stress (ROS) of the C2C12 cells was measured to serve as the index for model evaluation. Accordingly, a TNF-α induced muscle cell injury model was established. Finally, the group that was not treated with TNF-α (i.e., the concentration of TNF-α was 0 ng/mL) served as a basis for calculating the relative intracellular ROS of the other groups. The results are shown in FIG. 1 (all the data are presented as average values±SEM, n=6, analyzed with a t-test, ***p<0.001).

[2] = test system: MyHC; assay: Expression of myoblast differentiation marker MyHC in C2C12 cells by Western blot; conditions: for Expression level of MyHC (%): 4 days, control group = 100%
Text: (§1) As described above, myogenin and MyHC can be used as markers for myoblast differentiation. To investigate whether FU-LING extract and tumulosic acid have the effect of promoting differentiation of myoblasts, tumulosic acid (purchased from Sinphar pharmaceutical co. ltd), FU-LING meat extract obtained from Example 1 (1-4), FU-LING epidermis extract obtained from Example 1 (1-6), and the FU-LING fermentation extract obtained from Example 1 (1-7) were formulated into the following: (1) tumulosic acid solution, (2) FU-LING meat extract solution, (3) FU-LING epidermis extract solution, and (4) FU-LING fermentation extract solution, respectively, in dimethyl sulfoxide (DMSO; purchased from Sigma Company).
(§2) After 80% confluence of cells was attained in H-DMEM medium, cells were separated into fourteen groups and treated as follows: • (1) Control group: The medium was replaced by a differentiation medium supplemented with 2% horse serum, and the cells were cultured for 4 days. • (2) Meat extract group (3 groups): The medium was replaced by a differentiation medium supplemented with 2% horse serum, and FU-LING meat extract solution was then added into the medium (the final concentration was 0.1, 1 or 10 ng/mL) to perform a co-treatment for 4 days. • (3) Epidermis extract group (4 groups): The medium was replaced by a differentiation medium supplemented with 2% horse serum, and FU-LING epidermis extract solution was then added into the medium (the final concentration was 0.01, 0.1, 0.5 or 1 ng/mL) to perform a co-treatment for 4 days. • (4) Fermentation extract group (3 groups): The medium was replaced by a differentiation medium supplemented with 2% horse serum, and FU-LING fermentation extract solution was then added into the medium (the final concentration was 0.2, 2, or 20 ng/mL) to perform a co-treatment for 4 days. • (5) Tumulosic acid group (4 groups): The medium was replaced by a differentiation medium supplemented with 2% horse serum, and tumulosic acid solution was then added into the medium (the final concentration was 0.01, 0.1, 1 or 10 ng/mL) to perform a co-treatment for 4 days.
(§3) After that, cell proteins in each group were extracted. Thereafter, the expression levels of myoblast differentiation markers (myogenin and MyHC) were detected by Western blot. Finally, the control group served as a basis (e.g., the expression level of the control group was 100%) for calculating the relative expression levels of myogenin and MyHC proteins in each group.

[3] = test system: myogenin; assay: Expression of myoblast differentiation marker myogenin in C2C12 cells by Western blot; conditions: for Expression level of myogenin (%): 4 days, control group = 100%; for increase of the expression level of myogenin protein: vs control
Text: as §1, §2, §3

TNF-α
intracellular reactive oxidative stress (ROS) of C2C12 cells ([1]; 5 ng/mL TNF-α): increased
intracellular reactive oxidative stress (ROS) of C2C12 cells ([1]; 10 ng/mL TNF-α): significantly increased

C=C(CC[C@@H](C(=O)O)[C@H]1[C@H](O)C[C@@]2(C)C3=C(CC[C@]12C)[C@@]1(C)CC[C@H](O)C(C)(C)[C@@H]1CC3)C(C)C [Tumulosic acid, tumulosic acid]
Expression level of MyHC (%) ([2]; 0.01 ng/mL): 90%
Expression level of MyHC (%) ([2]; 0.1 ng/mL): 80%
Expression level of MyHC (%) ([2]; 1 ng/mL): 70%
Expression level of MyHC (%) ([2]; 10 ng/mL): 180%
increase of the expression level of MyHC protein ([2]; 10 μg/ml, vs control): about 80%
Expression level of myogenin (%) ([3]; 0.01 ng/mL): 130%
Expression level of myogenin (%) ([3]; 0.1 ng/mL): 130%
Expression level of myogenin (%) ([3]; 1 ng/mL): 160%
Expression level of myogenin (%) ([3]; 10 ng/mL): 490%
increase of the expression level of myogenin protein ([3]; 10 μg/ml): about 390%
increase of the expression level of myogenin protein ([3]; 0.01-0.1 μg/ml): about 30%

— US11369651B2, “Uses of FU-LING (Poria cocos) extract and tumulosic acid in protecting muscles” (SINPHAR PHARMACEUTICAL CO., LTD. (DONGSHAN, TAIWAN), priority 2016, dated 2022)
